Laboratory results: ChEMBL document CHEMBL5356986, “Research status of indole-modified natural products” (RSC Med Chem, 2023)

Assays:
HeLa [1] = experiment: Cytotoxicity against human HeLa cells assessed as reduction in cell viability; assay type: functional, cell-based
CCRF-CEM = experiment: Growth inhibition of human CCRF-CEM cells; assay type: functional
RPMI-8226 = experiment: Growth inhibition of human RPMI-8226 cells; assay type: functional
[2] = Antioxidant activity assessed as DPPH radical scavenging activity measured after 30 mins; assay type: functional
HeLa [3] = experiment: Antiproliferative activity against human HeLa cells assessed as reduction in cell growth; assay type: functional, cell-based
MCF7 [4] = experiment: Antiproliferative activity against human MCF7 cells assessed as inhibition of cell growth after overnight incubation by MTT assay; assay type: functional, cell-based
HT-29 = experiment: Antiproliferative activity against human HT-29 cells assessed as inhibition of cell proliferation by MTT assay; assay type: functional, cell-based
HeLa [5] = experiment: Antiproliferative activity against human HeLa cells assessed as inhibition of cell growth incubated for 72 hrs by MTT assay; assay type: functional, cell-based
[6] = system: Human immunodeficiency virus 1; experiment: Antiviral activity against HIV-1 harboring integrase L74M mutant; assay type: functional, organism-based
H4 = experiment: Antiproliferative activity against human H4 cells assessed as cell growth inhibition; assay type: functional, cell-based
Bel-7402 = experiment: Cytotoxicity against human Bel-7402 cells assessed as reduction in cell viability measured after 72 hrs by MTT assay; assay type: functional, cell-based; settings: Bel-7402, 72 h
[7] = Cytotoxicity against human A549 cells assessed as cell growth inhibition measured after 24 hrs by MTT assay; assay type: functional, cell-based
HL-60 = experiment: Cytotoxicity against human HL-60 cells assessed as reduction in cell viability incubated for 48 hrs by MTT assay; assay type: functional, cell-based; settings: HL-60, 48 h
SW480 = experiment: Cytotoxicity against human SW480 cells assessed as cell growth inhibition; assay type: functional, cell-based
MCF7 [8] = experiment: Cytotoxicity against human MCF7 cells assessed as reduction in cell growth; assay type: functional, cell-based
SMMC-7721 = experiment: Cytotoxicity against human SMMC-7721 cells assessed as reduction in cell viability incubated for 48 hrs by MTT assay; assay type: functional, cell-based; settings: SMMC-7721, 48 h
K562 = experiment: Antiproliferative activity against human K562 cells assessed as cell growth inhibition by MTT assay; assay type: functional, cell-based
A549 = experiment: Antiproliferative activity against human A549 cells assessed as reduction in cell viability incubated for 48 hrs by MTT assay; assay type: functional, cell-based; settings: A549, 48 h
SGC-7901 = experiment: Cytotoxicity against human SGC-7901 cells assessed as reduction in cell viability measured after 48 hrs by MTT colorimetric assay; assay type: functional, cell-based; settings: SGC-7901, 48 h
HepG2 = experiment: Cytotoxicity against human HepG2 cells assessed as reduction in cell viability measured after 48 hrs by MTT colorimetric based assay; assay type: functional; settings: HepG2, 48 h
[9] = Antioxidant activity assessed as DPPH radical scavenging activity; assay type: functional

COc1ccc(/C=C\c2cc(OC)c(OC)c(OC)c2)cc1OC(=O)c1cccc(-n2cc(CCOC(=O)[C@H](N)Cc3cn(C)c4ccccc34)nn2)c1
IC50 (HeLa [1]): 70 nM

C=C1C(=O)O[C@H]2[C@H]1CC1C(COC(=O)c3c[nH]c4ccccc34)=CCC[C@@]3(C)O[C@@]123 (some centres undefined)
GI50 (CCRF-CEM): 50 nM | GI50 (RPMI-8226): 40 nM

O=C(/C=C/c1ccc(O)c(O)c1)NCCc1c[nH]c2ccc(O)cc12 [N-CAFFEOYLSEROTONIN]
EC50 [2]: 8100 nM

COc1cc([C@@H]2c3cc4c(cc3[C@H](NCc3c[nH]c5ccccc35)[C@H]3COC(=O)[C@H]23)OCO4)cc(OC)c1OC
IC50 (HeLa [3]): 100 nM

CCOC(=O)c1[nH]c2cc(OC)ccc2c1/C=C/C(=O)c1cc(OC)c(OC)c(OC)c1
IC50 (MCF7 [4]): 240 nM | IC50 (HT-29): 130 nM | IC50 (HeLa [5]): 840 nM

COC(=O)c1[nH]c2ccc(OC)cc2c1/C=C/C(=O)c1cc(OC)c(OC)c(OC)c1
IC50 (MCF7 [4]): 590 nM | IC50 (HT-29): 1000 nM | IC50 (HeLa [5]): 2400 nM

C=C1C(=O)O[C@H]2[C@H]1CC1C(COC(=O)c3cc4ccccc4[nH]3)=CCC[C@@]3(C)O[C@@]123 (some centres undefined)
GI50 (CCRF-CEM): 280 nM | GI50 (RPMI-8226): 260 nM

COC(=O)c1[nH]c2ccccc2c1/C=C/C(=O)c1cc(OC)c(OC)c(OC)c1
IC50 (MCF7 [4]): 1100 nM | IC50 (HT-29): 7300 nM | IC50 (HeLa [5]): 2000 nM

C=C(C)[C@@H]1CC[C@]2(C(=O)N3CCN(C(=O)/C=C/c4ccc5[nH]ccc5c4)CC3)CC[C@]3(C)[C@H](CC[C@@H]4[C@@]5(C)CC[C@H](OC(=O)CC(C)(C)C(=O)O)C(C)(C)[C@@H]5CC[C@]43C)[C@@H]12
IC50 [6]: 50 nM

COC(=O)[C@]1(C)CC[C@]2(C)CC[C@]3(C)C4=CC(c5cn(C)c6cc(Cl)ccc56)=C5C(=CC(OC)C(OC)=C5C)[C@]4(C)CC[C@@]3(C)[C@@H]2C1 (some centres undefined)
IC50 (H4): 2030 nM | IC50 (Bel-7402): 10 nM

C=C1C(=O)O[C@@H]2C3O[C@]3(C)CC/C=C(\C)CC[C@@H]12 (some centres undefined)
GI50 (CCRF-CEM): 9160 nM | GI50 (RPMI-8226): 8200 nM

C=C(C)[C@@H]1CC[C@]2(C(=O)O)CC[C@]3(C)[C@H](CC[C@@H]4[C@@]5(C)CC[C@H](OC(=O)CC(C)(C)C(=O)O)C(C)(C)[C@@H]5CC[C@]43C)[C@@H]12 [BEVIRIMAT]
IC50 [6]: 65 nM

O=C(/C=C/c1ccc(O)c(O)c1)Nc1ccc2[nH]ccc2c1
EC50 [2]: 51000 nM

COC(=O)C1=CO[C@@H](OC)[C@@H]2C(C(NCCc3c[nH]c4ccc(OC)cc34)NCCc3c[nH]c4ccc(OC)cc34)=CC[C@H]12
IC50 [7]: 1180 nM | IC50 (HL-60): 430 nM | IC50 (SW480): 890 nM | IC50 (MCF7 [8]): 580 nM | IC50 (SMMC-7721): 690 nM

COc1cc([C@@H]2c3cc4c(cc3[C@H](NC(=O)C(=O)c3cn(Cc5ccccc5Cl)c5ccc(F)cc35)[C@H]3COC(=O)[C@H]23)OCO4)cc(OC)c1OC
IC50 (K562): 400 nM | IC50 (HeLa [3]): 150 nM

CC1=C(O)C(=O)C=C2C1=CC=C1[C@@]2(C)CC[C@@]2(C)[C@@H]3C[C@](C)(C(=O)O)CC[C@]3(C)CC[C@]12C [CELASTROL]
IC50 (H4): 2090 nM | IC50 (Bel-7402): 1550 nM

COc1cc([C@@H]2c3cc4c(cc3[C@H](NC(=O)c3cc5c([nH]c6ccccc65)c(-c5ccc(F)c(F)c5)n3)[C@H]3COC(=O)[C@H]23)OCO4)cc(OC)c1OC
IC50 (A549): 2240 nM

C[C@H]1[C@H](C)CC[C@]2(C(=O)O)CC[C@]3(C)C(=CC[C@@H]4[C@@]5(C)CC[C@H](O)C(C)(C)[C@@H]5CC[C@]43C)[C@H]12 [URSOLIC ACID]
IC50 (SGC-7901): > 20000 nM | IC50 (HepG2): > 20000 nM

CCOC(=O)c1[nH]c2ccc(OC)cc2c1/C=C/C(=O)c1cc(OC)c(OC)c(OC)c1
IC50 (MCF7 [4]): 460 nM | IC50 (HT-29): 390 nM | IC50 (HeLa [5]): 330 nM

O=C1O[C@H]([C@@H](O)CO)C([O-])=C1O.[Na+] [SODIUM ASCORBATE]
IC50 [9]: 12800 nM
